In patent publication US11998516B2, “Methods and compositions for treating depression using cyclobenzaprine” (TONIX PHARMA HOLDINGS LIMITED, priority 2011, dated 2024):

Key:
[1] = test system: patients with fibromyalgia
Method: Hospital Anxiety and Depression Scale (HAD). The Hospital Anxiety and Depression Scale (HAD) is a widely used patient self-rated scale with 14 questions (7 “anxiety” and 7 “depression” questions) that ranges from 0-42.
The HAD Depression Subscale score was also analyzed.

fibromyalgia patients = conditions: 10 to 40 mg over a 12-week period; cited from earlier work
[2] = 1-4 mg at bedtime, week 8, p=0.012
[3] = 1-4 mg at bedtime, week 8, p=0.017

In the case of `CN(C)CCC=C1c2ccccc2C=Cc2ccccc21` [cyclobenzaprine, 3-(5H-dibenzo[a,d]cyclohepten-5-ylidene)-N,N-dimethyl-1-propanamine], the “HAD depression subscale at week 8” value ([1]; 1-4 mg at bedtime, week 8) is reported as 4.9, the “decrease (improvement) of HAD score, baseline to week 8” value [1, 2] is reported as 3.3 and the “percent decrease of HAD score, baseline to week 8” value [1, 2] is reported as 24.1%. For the same molecule, the “decrease (improvement) of HAD depression subscale, baseline to week 8” value [1, 3] was 1.4, the “percent decrease of HAD depression subscale, baseline to week 8” value [1, 3] was 22.2% and the “HAD score at week 8” value ([1]; 1-4 mg at bedtime, week 8, scale range 0-42) was 10.4. The “HAD depression subscale at baseline” value ([1]; fibromyalgia patients, before treatment) was 6.3, the “HAD score at baseline” value ([1]; fibromyalgia patients, before treatment, scale range 0-42) was 13.7 and the “comparison of change from baseline in HAD scale versus placebo” value ([1]; week 8, VLD CBP vs placebo groups) was “did not reveal a significant effect”. For the same molecule, the “comparison of change from baseline in HAD Depression subscore versus placebo” value ([1]; week 8, VLD CBP vs placebo groups, p=0.023) was “significant improvement”, the muscle tightness (fibromyalgia patients) was “reduction” and the pain score (fibromyalgia patients) was “significantly improved”. For the same molecule, the quality of sleep (fibromyalgia patients) was “significantly improved” and the “total number of tender points” value (fibromyalgia patients) was “reduction”.
